Consider twelve substances from US6780838B2, “Compounds for treating fungal pathologies of the oral cavity” (priority 2001, dated 2004).

Where no end group is shown, it is not given here.

For test [1] the following is noted: amino acids added to C-terminal α-MSH (11-13); cited from earlier work.
For test [2] the following is noted: stereochemistry analogs, Hiltz et al. 1991; cited from earlier work.
Test [3] deals with C. albicans. Put plainly: C. albicans colony forming units (viability) after incubation with peptide. It counts as cell-based. As to conditions: for relative potency in reducing C. albicans viability: 10^−4 M melanocortin peptides (FIG. 2 legend: all 10^−6 M); for reducing C. albicans CFU at higher concentrations: up to 10^−4 M, results not shown in the figures. Here is the method:
C. albicans (clinical isolate) was obtained from the collection of the Department of Microbiology, Ospedale Maggiore di Milano and maintained on Sabouraud's agar slants and periodically transferred to Sabouraud's agar plates and incubated for 48 hours at 28° C. To prepare a stationary growth phase yeast, a colony was taken from the agar plate and transferred into 30 ml Sabouraud-dextrose broth and incubated for 72 hours at 32° C. Cells were centrifuged and suspended in Hank's balanced salt solution (“HBSS”) to the desired concentration. Viability, determined by the exclusion of 0.01% methylene blue, remained >98%.
C. albicans (1×10^6/ml in HBSS) was incubated in the presence of absence or (1-13) (SEQ ID NO: […]) or (11-13) (SEQ ID NO: 1) at concentrations in the range of 10^−15 M to 10^−6 M for 2 hours at 37° C. Cells were then washed in cold distilled water and diluted with HBSS to a concentration of 100 organisms/ml. One-ml aliquots were dispensed on blood agar plates and incubated for 48 hours at 37° C. Organism viability was estimated from the number of colonies formed.
In subsequent experiments using familiar procedures we compared activity of α-MSH (4-10) (SEQ ID NO: 2), (6-13) (SEQ ID NO: 3), (11-13) (SEQ ID NO: 1), ACTH (SEQ ID NO: 5) (1-39), (18-39) (SEQ ID NO: 6) and fluconazole, the latter an established antifungal agent. Melanocortin peptides and fluconazole were tested in concentrations of 10^−6 M to 10^−4 M. There were at least six replicates for each concentration of peptide. […]

For test [4] the following is noted: versus α-MSH; cited from earlier work.
The subject of test [5] is C. albicans. Nature of the test: C. albicans killing by human neutrophils. In kind it is cell-based. Particulars: FIG. 4; 10^−12 M to 10^−4 M; 2 hours at 37° C.; p<0.01. On the procedure: Venous blood (20 ml) from health volunteers was anticoagulated with heparin. Neutrophils were isolated using dextran sedimentation and Ficoll-Hypaque (Sigma Chemical Co., St. Louis, […]., USA) centrifugation. Erythrocytes were lysed via hypotonic shock. Neutrophils represented at least 97% of the cell suspension. Cell viability, estimated by trypan blue exclusion, was >98%. Neutrophils were suspended to a final concentration in HBSS. C. albicans (1×^6) were opsonized with human AB serum in a shaking water bath for 30 minutes at 37° C. Organisms were then incubated with neutrophils in medium or in medium with α-MSH (1-13) (SEQ ID NO: 4) or α-MSH(11-13) (SEQ ID NO: 1) in concentrations of 10^31 15 M to 10^31 4 M in a shaking water bath for 2 hours at 37° C. After incubation, the culture tubes were placed on ice stop growth and extracellular organisms were washed twice with centrifugation at 1000×g at 4° C. A 2.5% sodium desoxycholoate solution was added to obtain a suspension of […]. Two 1/100 serial dilutions in HBSS were made to obtain a final suspension of 100 cells/ml. Aliquots of 1 ml were dispensed on blood agar plates and incubated for 48 hours at 37° C. Colony forming units (CFUs) were counted at the end of the incubation period. Experiments were run in triplicate and repeated using blood from 5 different donors.

Test [6] has as its system cAMP content of C. albicans. Put plainly: cAMP content of permeabilized C. albicans (EIA). Particulars: FIG. 5; 10^−6 M, 3 minutes; increase of same order of magnitude as equimolar forskolin. It counts as cell-based. Here is the method: C. albicans ([…]), permeabilized with toluene/ethanol, were incubated at 37° C. with continuous shaking in the presence of 10^31 6 M α-MSH(1-13) (SEQ ID NO: 4), (11-13) (SEQ ID NO: 1), forskolin, an agent known to increase intracellular cAMP, or in medium alone. The reaction was stopped after 3 minutes by the addition of ice cold ethanol, cAMP was measured in duplicate using a commercial enzyme immunoassay (EIA) kit (Amersham, United Kingdom) after extraction via the liquid-phase method according to manufacturer's instructions. The effect of forskolin (10^−6 M) on C. albicans colony formation was determined using the same procedure as for α-MSH peptides.

In test [7] the test system is C. albicans. Put plainly: C. albicans colony forming units (viability) after incubation with peptide. It counts as cell-based. Particulars: FIG. 1; peptide 10^−12 M to 10^−4 M; 2 hours at 37° C.; p<0.01 vs. control.

“10-13 sequence: α-MSH 10-13, glycine added to the 11-13 sequence (GKPV; ends and bridges not checked; UniProt P01189 147-150, looked up, fragment)”: the “antipyretic potency relative to the 11-13 sequence” value in test [1] is reported as “slightly decreased the potency”.

As to Ac-[D-K^11]-α-MSH 11-13-NH2, the “anti-inflammatory potency/activity relative to the L-form tripeptide α-MSH 11-13” value in test [2] was “same general potency”.

In the case of “ACTH (1-39): adrenocortitrophic hormone (1-39) (SYSMEHFRWGKPVGKKRRPVLVYPAGEDDEASEAFPLEF)”, the “relative potency in reducing C. albicans viability” value with C. albicans [3] (FIG. 2) is “did not reduce C. albicans viability”. Moreover, the “reducing C. albicans CFU at higher concentrations” value with C. albicans [3] is “ineffective”.

On to “9-13 sequence: α-MSH 9-13 sequence (WGKPV; ends and bridges not checked; UniProt P01189 146-150, looked up, fragment)”, for which the “antipyretic potency relative to the 11-13 sequence” value in test [1] was “almost devoid of activity”.

Take [Nle^4,D-Phe^7]-α-MSH: the “potency in reducing fever relative to the parent peptide” value in test [4] is reported as “approximately 10 times”.

Consider SYSMEHFRWGKPV [α-MSH (1-13)], for which the “relative potency in reducing C. albicans viability” value in the test on C. albicans [3] (FIG. 2) was “most effective”. Besides, the “killing of C. albicans by human neutrophils” value in the test on C. albicans [5] was “enhanced the killing”. In addition, the “cAMP content in the yeast” value in test [6] is reported as “enhanced”. In the test on C. albicans [7], the “C. albicans colony forming units (CFU)” value is “greatly reduced”.

As to “HFRWGKPV (Ac-HFRWGKPV-NH2) [α-MSH (6-13)]”, the “relative potency in reducing C. albicans viability” value in the test on C. albicans [3] (FIG. 2) is listed as “most effective”.

With “KPV (Ac-Lys-Pro-Val-NH2) [α-MSH (11-13)]”, the “relative potency in reducing C. albicans viability” value in the test with C. albicans [3] (FIG. 2) was “most effective”. In the test with C. albicans [5], the “killing of C. albicans by human neutrophils” value is “enhanced the killing”. Moreover, the “cAMP content in the yeast” value in test [6] was “enhanced”. The “C. albicans colony forming units (CFU)” value in the test on C. albicans [7] is “greatly reduced”.

As for “ACTH fragment (18-39): ACTH fragment (18-39) (CLIP) (RPVLVYPAGEDDEASEAFPLEF)”, the “relative potency in reducing C. albicans viability” value in the test with C. albicans [3] (FIG. 2) is listed as “did not reduce C. albicans viability”. Moreover, the “reducing C. albicans CFU at higher concentrations” value in the test on C. albicans [3] is “ineffective”.

On to “α-MSH (4-10): core α-MSH sequence (4-10), SEQ ID NO: 2”, for which the “inhibition of CFU” value in the test on C. albicans [3] (FIG. 2, 10^−4 M (FIG. 2 legend: 10^−6 M), p<0.01 vs. control) is “approximately 50%”.

Consider “VPK-Ac-CC-Ac-KPV (Ac-CKPV; also: disulfide-linked dimer through Cys)”, for which, in the test with C. albicans [3], the “effectiveness against microbes compared with α-MSH (11-13)” value is “at least as effective”. Also, the “C. albicans colony forming units (CFU)” value in the test with C. albicans [7] is on record as “inhibited C. albicans colony formation”.

On to “8-13 sequence: α-MSH 8-13 sequence (RWGKPV; ends and bridges not checked; UniProt P01189 145-150, looked up, fragment)”, for which the “antipyretic potency relative to the 11-13 sequence” value in test [1] is on record as “greater than that of the 11-13 sequence”.
